Experimental data reported in patent US4757139A, “5-fluoro-2'-deoxyuridine derivative, processes for preparing same and antitumor composition containing the same” (Teijin Limited, priority 1983, dated 1988).
Read-outs that look alike come from different tables or passages of the source.

Legend:
[1] = tested on: mouse leukemia cells L1210; test: Antitumor activity against mouse leukemia L1210, intraperitoneal administration; settings: for ILS30 (dose required to increase lifespan 30%) / Max. ILS (%): i.p. once a day for 5 consecutive days
Source text: Antitumor activity of 5-fluoro-2'-deoxyuridine derivatives (in intraperitoneal administration)
Experiments were made with the 5-fluoro-2'-deoxyuridine derivatives of this invention in order to know its antitumor effect against mouse leukemia cells L1210 in comparison with its parent compound 5-fluoro-2'-deoxyuridine and other known antitumor agents.
BDF1 mice (male, 6-week-old, Ca 24 g, in groups of 5 mice), which were abdominally implanted with 10^5 cells of mouse leukemia L1210, which had been collected after 7-day cultivation in other mice, were used in the experiments.
The respective agents were given to the experimental mice intraperitoneally once a day for 5 consecutive days starting 24 hours after the implantation of tumor cells.
The antitumor effect of the respective agents were indicated by the rate of increase in the length of the survival period obtained from the groups given the agents in contrast with the length of the survival period of the control group (not given the agents).
The dose, which is required to increase the lifespan of the experimental mice 30% as compared with the control group, is indicated by ILS30 and the dose, which is required to effect the maximum increase of lifespan (Max. ILS(%)), is indicated by ILS max. ILS max./ILS30 is to represent the therapeutic index which indicates the safety of the agents.

[2] = Rate of hydrolysis of 5-fluoro-2'-deoxyuridine derivatives by esterase; type: in vitro ADME, porcine; settings: pig, liver esterase, pH 7.00, 37° C., read-out: t 1/2 (time for 1/2 of the derivative to be converted into parent compound)
Procedure: Rate of hydrolysis of 5-fluoro-2'-deoxyuridine derivatives by esterase […] A 10 μg/ml isotonic solution of the experimental compound in a phosphate buffer (pH 7.00) was prepared and the […] (manufactured by Sigma) extracted from the porcine liver was added to the solution at 37° C. in such a way as to provide the enzyme concentration ranging from 0.03 units/ml to 150 units/ml. Then the sample (10 μl) was injected into an HPLC column periodically to determine the amount of 5-fluoro-2'-deoxyuridine release by the enzyme reaction.

[3] = Release of FUdR from the compound due to the enzyme system in the plasma; type: in vitro ADME; settings: 4×10^-5 M compound (FUdR 9.85 μg/ml), 20% rat plasma, pH 7.0, 37° C.
Procedure: Behavior to release FUdR from the compound due to the enzyme system in the plasma
The release rates of 5-fluoro-2'-deoxyuridine (FUdR) from the compound of this invention at 37° C. in the rat plasma (20%), diluted with 0.1M phosphate buffer, pH 7.0, were measured.
The compound of this invention was added to the plasma diluted with an isotonic solution of phosphate buffer to a concentration of 4×10^-5 M (corresponding to FUdR 9.85 μg/ml) and was incubated at 37° C. The sample (10 μl) was injected into an HPLC column periodically to determine the amount (μg/ml) of 5-fluoro-2'-deoxyuridine released by the enzymatic reaction.

mouse leukemia L1210 = test: Antitumor activity against mouse leukemia L1210, oral administration; type: in vivo, BDF1 mice; settings: for Antitumor effect in oral administration compared with 5-fluoro-2'-deoxyuridine and 3',5'-dioctanoyl-5-fluoro-2'-deoxyuridine: L1210-bearing mice, result in words
Procedure: (§1) The respective agents were administered orally three times, i.e. on the first day, third day, and fifth day, starting 24 hours after the implantation of tumor cells.

[4] = Change in body weight of L1210-bearing mice, oral administration; type: in vivo, BDF1 mice; settings: days 1-4
Procedure: as §1

[5] = pH 7, enzyme concentration 0.045 units/ml
[6] = days 1, 3, 5, dose 10 mg/kg/day
[7] = days 1, 3, 5, dose 30 mg/kg/day
[8] = days 1, 3, 5, dose 100 mg/kg/day
[9] = days 1, 3, 5, dose 300 mg/kg/day
[10] = pH 7, enzyme concentration 150.0 units/ml
[11] = pH 7, enzyme concentration 6.0 units/ml

Structure (SMILES)	ILS30 (dose required to increase lifespan 30%) ([1]; L1210-bearing BDF1 mice) [µmol·days/kg]	Max. ILS (%) ([1]; L1210-bearing BDF1 mice)	Therapeutic index (ILS max./ILS30) ([1]; mouse, in vivo, ip)	Release rate of 5-fluoro-2'-deoxyuridine ([3]; after 100 min) [µg/mL]	ILS (%) (mouse leukemia L1210; [6])	ILS (%) (mouse leukemia L1210; [7])	ILS (%) (mouse leukemia L1210; [8])	ILS (%) (mouse leukemia L1210; [9])	Change in body weight (1-4 d, g/mouse) ([4]; dose 10 mg/kg/day)	Change in body weight (1-4 d, g/mouse) ([4]; dose 30 mg/kg/day)	Change in body weight (1-4 d, g/mouse) ([4]; dose 100 mg/kg/day) [g/mouse]	Change in body weight (1-4 d, g/mouse) ([4]; dose 300 mg/kg/day) [g/mouse]	also measured
CCCCCC(=O)OC[C@H]1O[C@@H](n2cc(F)c(=O)[nH]c2=O)C[C@@H]1OC(=O)CCCCC [3',5'-dihexanoyl-5-fluoro-2'-deoxyuridine, reference compound]	10	38	4.3	7.8									half-life [2, 5]: 32.5 min; half-life ([2]; pH 7, enzyme concentration 0.075 units/ml): 24 min; half-life ([2]; pH 7, enzyme concentration 0.15 units/ml): 10 min; Release rate of 5-fluoro-2'-deoxyuridine ([3]; after 200 min): 9.85 µg/mL
CCCCCCCCCCCC(=O)OC[C@H]1O[C@@H](n2cc(F)c(=O)[nH]c2=O)C[C@@H]1OC(=O)CCCCCCCCCCC [3',5'-didodecanoyl-5-fluoro-2'-deoxyuridine]	1.0	62	45.0	1.2	0	5	15	40	+1.0 g/mouse	+1.0 g/mouse	0	-2.6	Antitumor effect in oral administration compared with 5-fluoro-2'-deoxyuridine and 3',5'-dioctanoyl-5-fluoro-2'-deoxyuridine (mouse leukemia L1210): much higher antitumor effect; half-life [2, 10]: 4000 min; Release rate of 5-fluoro-2'-deoxyuridine ([3]; after 200 min): 2.2 µg/mL; Release rate of 5-fluoro-2'-deoxyuridine ([3]; after 300 min): 2.9 µg/mL; Release rate of 5-fluoro-2'-deoxyuridine ([3]; after 400 min): 3.8 µg/mL; Release rate of 5-fluoro-2'-deoxyuridine ([3]; after 500 min): 4.2 µg/mL
CCCCCCCCCCCCCCCC(=O)OC[C@H]1O[C@@H](n2cc(F)c(=O)[nH]c2=O)C[C@@H]1OC(=O)CCCCCCCCCCCCCCC [3',5'-dipalmitoyl-5-fluoro-2'-deoxyuridine, reference compound]	0.8	55	5.0										
CCCCCCCC(=O)OC[C@H]1O[C@@H](n2cc(F)c(=O)[nH]c2=O)C[C@@H]1OC(=O)CCCCCCC [3',5'-dioctanoyl-5-fluoro-2'-deoxyuridine, reference compound]				9.85	-5	3	-5	5	+1.8 g/mouse	+1.6 g/mouse	-2.8	-2.2	half-life ([2]; pH 7, enzyme concentration 0.03 units/ml): 18.2 min; half-life [2, 5]: 15.6 min
CCC(=O)OC[C@H]1O[C@@H](n2cc(F)c(=O)[nH]c2=O)C[C@@H]1OC(=O)CC [3',5'-dipropanoyl-5-fluoro-2'-deoxyuridine]													half-life ([2]; pH 7, enzyme concentration 3.0 units/ml): 47.4 min; half-life [2, 11]: 24.2 min
O=C(O)CCCCC(=O)OC[C@H]1O[C@@H](n2cc(F)c(=O)[nH]c2=O)C[C@@H]1OC(=O)CCCCC(=O)O [3',5'-diadipoyl-5-fluoro-2'-deoxyuridine]		58	20.0										half-life [2, 11]: 439 min; half-life ([2]; pH 7, enzyme concentration 12.0 units/ml): 216 min
O=C(O)CCCC(=O)OC[C@H]1O[C@@H](n2cc(F)c(=O)[nH]c2=O)C[C@@H]1OC(=O)CCCC(=O)O [3',5'-diglutaryl-5-fluoro-2'-deoxyuridine]													half-life [2, 10]: 437 min
CCCCCCCCCCCCCC(=O)OC[C@H]1O[C@@H](n2cc(F)c(=O)[nH]c2=O)C[C@@H]1OC(=O)CCCCCCCCCCCCC [3',5'-ditetradecanoyl-5-fluoro-2'-deoxyuridine]		61			27	33	17		-0.8 g/mouse	-1.4 g/mouse	-2.4		Antitumor effect in oral administration compared with 5-fluoro-2'-deoxyuridine and 3',5'-dioctanoyl-5-fluoro-2'-deoxyuridine (mouse leukemia L1210): much higher antitumor effect; ILS (%) (mouse leukemia L1210; days 1, 3, 5, dose 1 mg/kg/day): 3%; ILS (%) (mouse leukemia L1210; days 1, 3, 5, dose 3 mg/kg/day): 3%; Change in body weight (1-4 d, g/mouse) ([4]; dose 1 mg/kg/day): +2.2 g/mouse; Change in body weight (1-4 d, g/mouse) ([4]; dose 3 mg/kg/day): +2.0 g/mouse
CCCC(=O)OC[C@H]1O[C@@H](n2cc(F)c(=O)[nH]c2=O)C[C@@H]1OC(=O)CCC [3',5'-dibutyryl-5-fluoro-2'-deoxyuridine]													half-life ([2]; pH 7, enzyme concentration 0.75 units/ml): 42.4 min; half-life ([2]; pH 7, enzyme concentration 1.50 units/ml): 21.7 min
O=C(O)CCC(=O)OC[C@H]1O[C@@H](n2cc(F)c(=O)[nH]c2=O)C[C@@H]1OC(=O)CCC(=O)O [3',5'-disuccinyl-5-fluoro-2'-deoxyuridine]													half-life [2, 10]: 3220 min
O=c1[nH]c(=O)n([C@H]2C[C@H](O)[C@@H](CO)O2)cc1F [5-fluoro-2'-deoxyuridine]	200	54			15	10	15	10	+0.6 g/mouse	+1.8 g/mouse	-4.2	-5.2	Therapeutic index (ILS max./ILS30) ([1]; i.p., L1210-bearing BDF1 mice): 2.0
CCCCCCCCCC(=O)OC[C@H]1O[C@@H](n2cc(F)c(=O)[nH]c2=O)C[C@@H]1OC(=O)CCCCCCCCC [3',5'-didecanoyl-5-fluoro-2'-deoxyuridine]	18	52	10.0	4.7	7	26	15	20	-0.8 g/mouse	-1.4 g/mouse	-2.4	-3.8	Antitumor effect in oral administration compared with 5-fluoro-2'-deoxyuridine and 3',5'-dioctanoyl-5-fluoro-2'-deoxyuridine (mouse leukemia L1210): much higher antitumor effect; half-life ([2]; pH 7, enzyme concentration 0.3 units/ml): 140 min; half-life ([2]; pH 7, enzyme concentration 0.6 units/ml): 72 min; Release rate of 5-fluoro-2'-deoxyuridine ([3]; after 200 min): 6.7 µg/mL; Release rate of 5-fluoro-2'-deoxyuridine ([3]; after 300 min): 7.8 µg/mL; Release rate of 5-fluoro-2'-deoxyuridine ([3]; after 400 min): 8.5 µg/mL; Release rate of 5-fluoro-2'-deoxyuridine ([3]; after 500 min): 9.3 µg/mL
